Assay [1] in a line: HGIII-sPLA2 enzyme inhibition potency – biochemical, QFRET, IC50, dose response (AID 743457).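 Also: green fluorescence rise as the enzyme cleaves BODIPY PC-A2 in liposomes.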
A further assay addresses T1, Caspase-6 (Homo sapiens, UniProt P55212).
T1 sequence (P55212 whole entry): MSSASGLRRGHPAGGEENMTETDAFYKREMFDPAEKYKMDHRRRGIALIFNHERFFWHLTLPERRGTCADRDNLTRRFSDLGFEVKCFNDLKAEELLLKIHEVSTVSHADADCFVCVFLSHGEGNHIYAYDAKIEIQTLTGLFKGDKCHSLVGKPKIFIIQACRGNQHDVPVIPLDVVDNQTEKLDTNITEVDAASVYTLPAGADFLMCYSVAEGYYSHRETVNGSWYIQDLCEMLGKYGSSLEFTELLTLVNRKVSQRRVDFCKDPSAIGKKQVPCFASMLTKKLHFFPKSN
The experiment in a line: inhibition of CASP6 peptide cleavage – biochemical, VEID-R110 fluorescence, cherry-pick, dose response (AID 720632).

A short description of assay [2]: cells.
The target in assay [3] is T2, Oxysterols receptor LXR-beta (Homo sapiens, UniProt P55055).
T2 sequence (P55055 whole entry): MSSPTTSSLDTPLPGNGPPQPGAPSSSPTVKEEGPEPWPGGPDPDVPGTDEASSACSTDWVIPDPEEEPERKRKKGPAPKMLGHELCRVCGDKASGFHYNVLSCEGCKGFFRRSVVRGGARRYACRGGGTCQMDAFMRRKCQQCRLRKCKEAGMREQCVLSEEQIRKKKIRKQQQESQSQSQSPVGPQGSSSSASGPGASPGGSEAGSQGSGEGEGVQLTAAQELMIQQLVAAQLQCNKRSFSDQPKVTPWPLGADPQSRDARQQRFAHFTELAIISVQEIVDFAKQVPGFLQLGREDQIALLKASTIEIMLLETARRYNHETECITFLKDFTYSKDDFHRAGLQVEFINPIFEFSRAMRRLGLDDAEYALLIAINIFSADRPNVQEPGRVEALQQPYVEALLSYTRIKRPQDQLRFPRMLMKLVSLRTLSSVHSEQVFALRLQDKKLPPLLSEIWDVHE
It counts as functional, cell-based.

A short description of assay [4]: inhibition of ADAM10 peptide cleavage – biochemical, FRET peptide substrate, recombinant human ADAM10, selectivity assay for ADAM17 exosite inhibitor project, dose response (AID 743259).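 Also: ADAM10 enzyme cleaving a FRET peptide substrate.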
Assay [5] addresses Disintegrin and metalloproteinase domain-containing protein 17 (Homo sapiens, UniProt P78536). The experiment in a line: exosite inhibitors of ADAM17, dose response, biochemical (AID 743260).
A short description of assay [6]: A549 cell cytotoxicity, dose response, cytotoxicity control, plate reader, cherry-pick, antagonist series (AID 743412). It counts as functional, cell-based.
The nature of assay [7]: blockade of melanocortin 4 receptor signaling – cell-based, plate reader, cherry pick, counter-screen for LGR2 antagonist project, dose response (AID 743444).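 Also: transfected HEK 293 cells stimulated with alpha-MSH peptide; potency of inhibitors of the alpha-MSH evoked signal.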 It counts as functional.
Assay [8] is described as follows: blockers of bursicon-stimulated LGR2 cAMP reporter – cell-based, HEK293, CRE-luciferase reporter, cherry pick, set 2, dose response (AID 743343).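 Also: transfected cells were stimulated with diluted bursicon conditioned medium after compound addition.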 In kind it is functional. In general terms: In a reporter assay the amount or activity of a reporter protein is the signal.
Assay [9] concerns the target T3, Sentrin-specific protease 8 (Homo sapiens, UniProt Q96LD8).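 Also: luminescence read-out of SENP8 inhibition, dose-response confirmation following an ultra-high-throughput screen.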
T3 sequence (Q96LD8 whole entry): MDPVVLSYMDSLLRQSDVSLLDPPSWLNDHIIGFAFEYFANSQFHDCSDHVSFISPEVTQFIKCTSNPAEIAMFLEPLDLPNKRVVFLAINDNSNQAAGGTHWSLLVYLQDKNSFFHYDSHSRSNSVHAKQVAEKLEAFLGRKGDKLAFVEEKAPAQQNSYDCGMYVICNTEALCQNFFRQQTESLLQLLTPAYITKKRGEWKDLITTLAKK
It counts as functional.

The target of assay [10] is T4, Sentrin-specific protease 6 (Homo sapiens, UniProt Q9GZR1).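 Also: Luminescence-based dose-response confirmatory assay of SENP6 inhibition, following up an ultra-high-throughput screen.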
T4 sequence (Q9GZR1 whole entry): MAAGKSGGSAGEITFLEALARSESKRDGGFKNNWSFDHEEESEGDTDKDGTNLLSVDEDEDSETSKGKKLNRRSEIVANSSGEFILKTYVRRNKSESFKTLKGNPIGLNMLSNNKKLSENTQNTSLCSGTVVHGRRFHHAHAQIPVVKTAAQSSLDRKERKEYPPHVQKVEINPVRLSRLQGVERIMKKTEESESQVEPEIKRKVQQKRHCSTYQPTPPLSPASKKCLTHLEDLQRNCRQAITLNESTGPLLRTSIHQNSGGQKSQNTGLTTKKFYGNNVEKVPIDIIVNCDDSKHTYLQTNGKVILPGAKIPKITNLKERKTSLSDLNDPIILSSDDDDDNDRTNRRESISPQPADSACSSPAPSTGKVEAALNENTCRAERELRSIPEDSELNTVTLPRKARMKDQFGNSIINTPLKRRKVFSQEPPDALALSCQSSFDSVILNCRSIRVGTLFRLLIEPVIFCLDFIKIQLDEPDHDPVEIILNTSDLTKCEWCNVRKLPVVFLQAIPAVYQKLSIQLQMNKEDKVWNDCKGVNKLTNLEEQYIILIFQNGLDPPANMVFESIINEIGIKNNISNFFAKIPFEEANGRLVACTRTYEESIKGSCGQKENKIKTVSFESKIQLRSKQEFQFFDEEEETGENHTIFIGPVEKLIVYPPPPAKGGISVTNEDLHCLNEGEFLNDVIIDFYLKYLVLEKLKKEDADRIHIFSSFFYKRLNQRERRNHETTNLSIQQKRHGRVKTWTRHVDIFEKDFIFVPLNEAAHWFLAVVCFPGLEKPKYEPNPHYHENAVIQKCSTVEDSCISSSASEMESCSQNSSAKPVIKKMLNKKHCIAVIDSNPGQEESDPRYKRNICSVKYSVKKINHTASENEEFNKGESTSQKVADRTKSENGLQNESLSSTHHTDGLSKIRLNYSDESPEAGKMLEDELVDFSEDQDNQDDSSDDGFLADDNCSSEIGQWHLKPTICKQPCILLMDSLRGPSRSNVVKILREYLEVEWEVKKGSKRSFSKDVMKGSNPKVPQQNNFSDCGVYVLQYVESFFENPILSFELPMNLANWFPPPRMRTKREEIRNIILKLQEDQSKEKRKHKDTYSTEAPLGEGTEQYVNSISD
It counts as functional.

Another assay has as its target T5, Caspase-3 (Homo sapiens, UniProt P42574).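 Also: Dose-response selectivity test against caspase-3 for candidate inhibitors of sentrin-specific proteases (SENPs).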
T5 sequence (P42574 whole entry): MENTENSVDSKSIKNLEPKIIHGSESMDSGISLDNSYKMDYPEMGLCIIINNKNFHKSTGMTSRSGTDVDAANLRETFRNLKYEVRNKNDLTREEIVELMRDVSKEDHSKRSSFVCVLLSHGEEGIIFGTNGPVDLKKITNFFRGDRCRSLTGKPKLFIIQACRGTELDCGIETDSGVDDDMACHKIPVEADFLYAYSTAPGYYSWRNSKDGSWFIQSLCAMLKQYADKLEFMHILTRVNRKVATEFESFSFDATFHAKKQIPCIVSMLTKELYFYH
It counts as functional.

In assay [11] the target is T6, Sentrin-specific protease 7 (Homo sapiens, UniProt Q9BQF6).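 Also: Luminescence-based dose-response confirmation of ultra-high-throughput screening hits, measuring inhibition of SENP7.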
T6 sequence (Q9BQF6 whole entry): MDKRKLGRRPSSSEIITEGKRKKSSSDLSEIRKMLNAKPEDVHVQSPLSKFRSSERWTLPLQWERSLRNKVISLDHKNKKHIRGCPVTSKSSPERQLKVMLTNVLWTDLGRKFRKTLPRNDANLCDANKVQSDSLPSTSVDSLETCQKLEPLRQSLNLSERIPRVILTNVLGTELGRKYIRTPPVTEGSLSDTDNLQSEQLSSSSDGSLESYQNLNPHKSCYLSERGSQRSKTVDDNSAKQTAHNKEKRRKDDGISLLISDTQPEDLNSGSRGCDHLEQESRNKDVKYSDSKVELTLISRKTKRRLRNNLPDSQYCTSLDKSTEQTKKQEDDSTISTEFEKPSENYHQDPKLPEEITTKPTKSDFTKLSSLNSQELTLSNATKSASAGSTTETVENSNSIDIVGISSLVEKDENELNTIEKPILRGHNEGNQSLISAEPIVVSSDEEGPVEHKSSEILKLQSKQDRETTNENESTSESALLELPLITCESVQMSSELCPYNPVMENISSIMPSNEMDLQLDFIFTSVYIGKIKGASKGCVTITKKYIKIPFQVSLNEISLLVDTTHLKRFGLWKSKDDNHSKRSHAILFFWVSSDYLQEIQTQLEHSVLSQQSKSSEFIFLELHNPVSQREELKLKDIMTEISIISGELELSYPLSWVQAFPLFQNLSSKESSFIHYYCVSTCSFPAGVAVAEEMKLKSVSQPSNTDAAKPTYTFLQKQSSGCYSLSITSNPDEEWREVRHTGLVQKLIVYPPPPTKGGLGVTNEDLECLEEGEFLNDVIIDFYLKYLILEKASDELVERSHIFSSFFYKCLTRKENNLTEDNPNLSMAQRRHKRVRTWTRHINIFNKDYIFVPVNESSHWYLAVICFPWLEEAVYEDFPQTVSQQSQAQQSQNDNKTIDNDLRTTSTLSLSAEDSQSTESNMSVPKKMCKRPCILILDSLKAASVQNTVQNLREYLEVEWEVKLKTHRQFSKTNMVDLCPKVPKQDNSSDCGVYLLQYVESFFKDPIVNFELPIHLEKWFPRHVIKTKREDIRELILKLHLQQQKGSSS
It counts as functional.

Assay [12] can be described thus: Luminescence-based cell-based high throughput dose response assay to identify activators of the DAF-12 from the parasite S. stercoralis (ssDAF-12). In kind it is functional.
The target of assay [13] is T2, Oxysterols receptor LXR-beta. As to the kind of experiment: LXR agonists, Gal4 luciferase reporter, dose response, counter-screen for ssDAF-12 agonist project, cell-based, luminescence, HEK293, S. stercoralis campaign (AID 720737). It counts as functional. Conditions: read-out: IC50 (the source's name).
The test system of assay [14] is Streptococcus sp. 'group A'. As to the kind of experiment: Streptococcus pyogenes SK(-)GAS viability under kanamycin – luminescence, BacTiterGlo, confirmation, counter-screen for streptokinase expression inhibitor project, dose response (AID 1900). It counts as functional, organism-based. For orientation: A counterscreen serves to expose hits that act by an unwanted route or on another target.

In the next assay the target is T7, Streptokinase A (Streptococcus pyogenes serotype M1, UniProt P10520).
T7 sequence (P10520 whole entry): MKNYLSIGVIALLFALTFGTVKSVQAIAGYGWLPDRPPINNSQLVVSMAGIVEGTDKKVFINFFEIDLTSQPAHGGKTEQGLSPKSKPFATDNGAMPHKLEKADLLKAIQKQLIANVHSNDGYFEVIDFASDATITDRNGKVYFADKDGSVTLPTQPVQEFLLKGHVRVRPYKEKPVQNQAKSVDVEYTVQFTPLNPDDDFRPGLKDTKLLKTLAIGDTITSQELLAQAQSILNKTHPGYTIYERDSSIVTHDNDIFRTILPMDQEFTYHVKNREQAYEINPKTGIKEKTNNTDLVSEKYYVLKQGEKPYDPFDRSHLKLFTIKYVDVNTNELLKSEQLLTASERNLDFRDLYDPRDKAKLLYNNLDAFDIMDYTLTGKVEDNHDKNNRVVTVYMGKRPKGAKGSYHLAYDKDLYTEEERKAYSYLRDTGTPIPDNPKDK
As to the kind of experiment: viability-normalized secreted streptokinase activity reduction – plasminogen activation absorbance, OD405, dose response (AID 1914).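 Also: secreted streptokinase activity via plasminogen activation per viability signal from cell pellet.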 It counts as functional, Streptococcus pyogenes M1 GAS.

Another assay relates to Streptococcus. The experiment in a line: GAS UMAA2166 growth inhibition – luminescence, BacTiterGlo, counter-screen for streptokinase expression inhibitor project, dose response (AID 1915).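 Also: potency for reduction of bacterial viability or growth.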 In kind it is functional, organism-based.
A short description of assay [15]: cells. In kind it is functional, cell-based.
The nature of assay [16]: cells. In kind it is functional, cell-based. This is another data set of the same source.

Structures are written as SMILES. Activity calls are given as the source filed them.

The IC50 is the concentration that inhibits the measured activity by half. For orientation: AC50 means the concentration at which the activity in the assay is half-maximal.

Disintegrin and metalloproteinase domain-containing protein 17, sequence (P78536 whole entry, the tested form may be a part): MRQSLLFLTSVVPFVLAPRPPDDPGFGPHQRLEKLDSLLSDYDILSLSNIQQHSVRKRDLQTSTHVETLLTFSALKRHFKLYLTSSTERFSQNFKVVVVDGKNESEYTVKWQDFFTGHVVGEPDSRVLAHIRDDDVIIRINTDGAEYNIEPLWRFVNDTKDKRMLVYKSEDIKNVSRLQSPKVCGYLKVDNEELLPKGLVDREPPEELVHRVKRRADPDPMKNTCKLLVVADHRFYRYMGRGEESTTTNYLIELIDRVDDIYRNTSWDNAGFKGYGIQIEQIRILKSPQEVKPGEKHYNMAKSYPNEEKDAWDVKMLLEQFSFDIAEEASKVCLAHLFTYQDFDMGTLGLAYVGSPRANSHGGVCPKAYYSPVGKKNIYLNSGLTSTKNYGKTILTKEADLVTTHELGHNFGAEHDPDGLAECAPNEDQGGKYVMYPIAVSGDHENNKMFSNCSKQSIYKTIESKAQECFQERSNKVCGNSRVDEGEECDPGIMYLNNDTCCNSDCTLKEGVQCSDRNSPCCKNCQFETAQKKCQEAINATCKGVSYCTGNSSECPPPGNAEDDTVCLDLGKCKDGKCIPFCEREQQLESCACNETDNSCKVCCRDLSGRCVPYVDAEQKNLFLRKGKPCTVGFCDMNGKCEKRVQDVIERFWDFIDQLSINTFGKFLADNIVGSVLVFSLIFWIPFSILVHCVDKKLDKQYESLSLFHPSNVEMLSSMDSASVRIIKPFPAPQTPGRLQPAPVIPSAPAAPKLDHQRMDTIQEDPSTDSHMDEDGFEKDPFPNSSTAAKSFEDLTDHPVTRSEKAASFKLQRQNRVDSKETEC

Consider `Cc1csc(NC(=S)NC(=O)c2ccccc2)n1`, for which the IC50 in [1] is > 122 µM (inactive).

Consider `CCc1nnc(N/N=C/c2cc(C)c(C)cc2C)n1N`, for which the AC50 on Caspase-6 was 39.8 µM (active).

As to `Nc1c(Br)cc2oc(-c3ccccc3)nc2c1Br`, the EC50 (in “cells [2]”; in [3]) was > 67.5 µM (inactive) throughout.

With `O=C(CN1C(=O)c2ccccc2S1(=O)=O)Nc1cc(S(=O)(=O)N2CCCCC2)ccc1Cl`, the IC50 in [4] and in assay [5] was > 69.5 µM (inactive) each time.

As for `Cc1ccccc1-c1ccc([C@H]2[C@@H](CO)N3CCCCN(S(=O)(=O)c4ccc(F)cc4)C[C@@H]23)cc1`, the AC50 in assay [6] is 19.8 µM (active); in assay [7], 8.3 µM (active); in [8] it was 9.92 µM (active).

Regarding `Cc1ccc(-c2cc(-c3ccccc3)no2)cc1`, the IC50 was 23.7 µM (active) in assay [9], 18.6 µM (active) in assay [10], 21.7 µM (active) at Caspase-3 and 14.3 µM (active) in [11]. For the same compound, the EC50 (in “cells [2]”; in assay [3]) was > 67.5 µM (inactive) throughout.

`Cc1ccc(C(=O)Nc2ccc3c(c2)OCO3)cc1`: in [12], the IC50 was > 67.5 µM (inactive). In [13], the EC50 is > 67.5 µM (inactive).

Take `CC(C)(C)[S+]([O-])N1Cc2cc(C(=O)NCC(F)(F)F)nc(-c3cccc(-c4cccc(F)c4)c3)c2[C@H]1CCO` (stereo not given in full): the IC50 in [4] is > 7.72 µM (active); in assay [5], > 69.5 µM (inactive).

As to `COc1cc(-c2noc(C)c2/C=C/c2ccc(C(=O)O)cc2)cc(OC)c1OC`, the AC50 on Caspase-6 was 23.2 µM (active).

Take `Cc1nc2ccc(S(=O)(=O)NCC(=O)NCc3ccc4c(c3)OCO4)cc2s1`: the IC50 in [4] and in assay [5] was > 69.5 µM (inactive) each time.

Regarding `NNC(=O)/C(=N/Nc1ccccc1)S(=O)(=O)c1ccc(Cl)cc1`, in assay [1], the IC50 was 47.3 µM (inactive). Further, the EC50 in assay [14] was 6.91 µM (active); on Streptokinase A, > 150 µM (not active); in the assay on Streptococcus it was > 150 µM (not active).

`CNCC(O)Cn1c2c(c3ccccc31)CCCC2` (stereo not given): the IC50 in [12] is > 67.6 µM (inactive). Also, the EC50 in [13] is > 67.6 µM (inactive).

Take `CC1OC(NCCc2ccccc2)C(O)C(O)C1O` (stereo not given): the EC50 in the assay “cells [15]” is > 29.9 µM (inactive). Further, the IC50 in “cells [16]” was > 29.9 µM (inactive).

The values above are taken from ChEMBL document CHEMBL1201862, “PubChem BioAssay data set” (2004).
